Consider two compounds from patent US11091497B2, “Pyrano[3,4-b]pyrazine kappa opioid receptor ligands for treating addiction, pruritus, pain, and inflammation” (The Rockefeller University, priority 2017, dated 2021).

One data set deals with mice. As to the kind of experiment: Rotarod incoordination in mice. The class given is in vivo. As to conditions: intraperitoneal. From the text:
In the case of rotarod incoordination, kappa agonist effects in this assay reflect kappa-opioid receptor arrestin mediated signaling. This assay is thought to be a sensitive measure of the sedative properties of kappa opioid receptor agonists. Generally, a compound which has reduced efficacy in the coupling of arrestin with the kappa opioid receptor is thought to have a lowered potential for the sedative side effects of kappa opioid receptor ligands. Rotarod assays in vivo are employed to confirm this possibility.
Rotarod experiments were conducted with mice using a dedicated rodent rotarod apparatus, with up to five animals tested concurrently (IITC Life Science, Woodland Hills, Calif., USA). Rotarod rotation rate begins at 3 rotations per minute, and ramps to 30 rotations per minute over the course of 300 s, at which time the assay is terminated and animals removed to their home cage. Animals were acclimated to the rotarod on at least two occasions prior to the day of the test. On the day of the test, baseline times for each animal to fall off the rotarod were recorded. Mice were then injected intraperitoneally with vehicle or compound, and rotarod measurements conducted, beginning 0-2 minutes after injection, and then subsequently at select time points thereafter.

Data set [1] has as its target T1, kappa opioid receptor (PathHunter U2OS hOPRK1 β-arrestin cell line) (Homo sapiens, UniProt P41145).
T1 construct: host or cells: U2OS (PathHunter U2OS hOPRK1 β-arrestin cell line)
As to the kind of experiment: β-arrestin coupling (PathHunter Detection Kit). It counts as cell-based. As to conditions: for Emax at 10 µM: U2OS, read-out: β-arrestin coupling % efficacy.

Data set [2] has as its target T2, kappa opioid receptor (PathHunter U2OS hOPRK1 membranes) (Homo sapiens, UniProt P41145).
T2 construct: host or cells: U2OS (PathHunter U2OS hOPRK1 β-arrestin cell line)
The data set can be described thus: Tritiated U69,593 binding for KOP-R membranes.

pEC50, pIC50: −log10 of the molar value.

T1 sequence (P41145 whole entry): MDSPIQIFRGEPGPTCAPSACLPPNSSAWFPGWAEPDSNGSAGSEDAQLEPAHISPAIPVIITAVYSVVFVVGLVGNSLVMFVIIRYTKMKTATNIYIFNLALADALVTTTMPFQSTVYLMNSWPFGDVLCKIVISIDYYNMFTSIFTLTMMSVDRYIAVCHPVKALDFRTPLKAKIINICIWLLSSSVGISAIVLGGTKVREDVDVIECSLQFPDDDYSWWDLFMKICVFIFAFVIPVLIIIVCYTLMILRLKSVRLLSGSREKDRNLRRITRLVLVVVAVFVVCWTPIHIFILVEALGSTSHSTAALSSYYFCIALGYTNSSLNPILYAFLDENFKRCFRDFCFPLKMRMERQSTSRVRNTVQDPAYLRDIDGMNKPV
T2 sequence (P41145 whole entry): as above

By pEC50 is commonly meant −log10 of the EC50, conventionally taken in molar units. By pIC50 is commonly meant the IC50 on a negative log10 scale, so that one unit is a factor of ten. Turning to `CN1CCN(C(=O)Cc2ccc(Cl)c(Cl)c2)[C@H]2[C@H]1COC[C@@H]2N1CCCC1` (racemic) [Example 5A23, 1-[4-methyl-8-pyrrolidin-1-yl-3,4a,5,7,8,8a-hexahydro-2H- -pyrano(3,4-b)pyrazin-1-yl]-2-(3,4-dichlorophenyl)ethanone], the rotarod incoordination result is reported as “no significant incoordination” with mice (10 mg/kg), “statistically significant incoordination” in the data set with mice (30 mg/kg) and “statistically significant incoordination” in the data set with mice (90 mg/kg). In addition, the pEC50 in data set [1] is 5.26. Moreover, the Emax at 10 µM in data set [1] is 44%. Further, the pIC50 in data set [2] is 6.99.

Take `O=C(Cc1ccc(Cl)c(Cl)c1)N1CCN[C@@H]2COC[C@H](N3CCCC3)[C@H]21` (racemic) [Example 5A22, 1-[8-pyrrolidin-1-yl-2,3,4,4a,5,7,8,8a-octahydropyrano(3,4-b)pyrazin-1-yl]-2-(3,4-dichlorophenyl)ethanone]: the rotarod incoordination entry in the data set with mice (10 mg/kg) is listed as “no significant incoordination”; in the data set on mice (30 mg/kg) it was “significant incoordination”; with mice (90 mg/kg), “significant incoordination”. For the same compound, the pEC50 in data set [1] was 5.95. In addition, the Emax at 10 µM in data set [1] was determined as 67%. Moreover, in data set [2], the pIC50 is 7.19.
